Results published in the NIST ThermoML archive (doi:10.1016/j.jct.2008.09.018).
± gives the expanded uncertainty stated by the source.

Key:
[1] = Liquid; for mass density: Vibrating tube method; for speed of sound: Pulse-echo method; for viscosity: Capillary tube (Ostwald / Ubbelohde) method
[2] = refractive index (Na D-line) (dimensionless); details: 298.15 K; 101.33 kPa; Liquid; Standard Abbe refractometry
[3] = xn = mol fraction of the nth substance listed; details: 101 kPa, Liquid, x1 = 1; for speed of sound: Pulse-echo method; for viscosity: Capillary tube (Ostwald / Ubbelohde) method; for mass density: Vibrating tube method

Compound `OCCO` [1,2-ethanediol] has a mass density ([1]; 283.15 K, 101.33 kPa) of 1120.32 ± 0.18 kg/m3, a mass density ([1]; 285.64 K, 101.33 kPa) of 1118.6 ± 0.18 kg/m3 and a mass density ([1]; 290.64 K, 101.33 kPa) of 1115.12 ± 0.17 kg/m3. For the same compound, the mass density ([1]; 293.14 K, 101.33 kPa) was 1113.37 ± 0.17 kg/m3, the speed of sound ([1]; 293.15 K, 101 kPa) was 1666.7 ± 1.4 m/s and the mass density ([1]; 295.64 K, 101.33 kPa) was 1111.62 ± 0.17 kg/m3. For the same compound, the viscosity ([1]; 298.15 K, 101.33 kPa) was 16.95 ± 0.14 mPa·s, the speed of sound ([1]; 298.15 K, 101.33 kPa) was 1654.9 ± 1.4 m/s and the mass density ([1]; 300.65 K, 101.33 kPa) was 1108.12 ± 0.17 kg/m3. For the same compound, the viscosity ([1]; 303.15 K, 101 kPa) was 13.83 ± 0.1 mPa·s, the speed of sound ([1]; 303.15 K, 101 kPa) was 1643.1 ± 1.4 m/s and the mass density ([1]; 303.15 K, 101 kPa) was 1106.46 ± 0.17 kg/m3. The mass density ([1]; 303.15 K, 101.33 kPa) was 1106.37 ± 0.17 kg/m3, the mass density ([1]; 305.64 K, 101.33 kPa) was 1104.61 ± 0.17 kg/m3 and the viscosity ([1]; 308.15 K, 101 kPa) was 11.44 ± 0.083 mPa·s. The speed of sound ([1]; 308.15 K, 101 kPa) was 1631.2 ± 1.4 m/s, the mass density ([1]; 310.65 K, 101.33 kPa) was 1101.07 ± 0.17 kg/m3 and the mass density ([1]; 313.14 K, 101.33 kPa) was 1099.3 ± 0.17 kg/m3. It also gave a viscosity ([1]; 313.15 K, 101 kPa) of 9.565 ± 0.071 mPa·s, a speed of sound ([1]; 313.15 K, 101 kPa) of 1619.3 ± 1.4 m/s and a mass density ([1]; 313.15 K, 101 kPa) of 1099.23 ± 0.17 kg/m3. For the same compound, the mass density ([1]; 315.65 K, 101.33 kPa) was 1097.52 ± 0.17 kg/m3, the mass density ([1]; 320.64 K, 101.33 kPa) was 1093.95 ± 0.17 kg/m3 and the mass density ([1]; 323.15 K, 101.33 kPa) was 1092.15 ± 0.17 kg/m3. For the same compound, the refractive index [2] was 1.4307 ± 0.0005.
In the case of `CCCCCCCCCO` [nonan-1-ol], the mass density ([1]; 283.15 K, 101.33 kPa) is reported as 834.614 ± 0.25 kg/m3, the mass density ([1]; 285.64 K, 101.33 kPa) is reported as 832.923 ± 0.25 kg/m3 and the mass density ([1]; 288.15 K, 101.33 kPa) is reported as 831.224 ± 0.25 kg/m3. The mass density ([1]; 290.65 K, 101.33 kPa) was 829.521 ± 0.25 kg/m3, the mass density ([1]; 293.14 K, 101.33 kPa) was 827.816 ± 0.25 kg/m3 and the speed of sound ([1]; 293.15 K, 101 kPa) was 1381.6 ± 1.6 m/s. It also gave a mass density ([1]; 295.64 K, 101.33 kPa) of 826.106 ± 0.25 kg/m3, a mass density ([1]; 298.14 K, 101.33 kPa) of 824.391 ± 0.25 kg/m3 and a viscosity ([1]; 298.15 K, 101.33 kPa) of 9.494 ± 0.084 mPa·s. For the same compound, the speed of sound ([1]; 298.15 K, 101.33 kPa) was 1364.4 ± 1.6 m/s, the mass density ([1]; 298.15 K, 101.33 kPa) was 824.48 ± 0.26 kg/m3 and the mass density ([1]; 300.65 K, 101.33 kPa) was 822.671 ± 0.25 kg/m3. The mass density ([1]; 303.14 K, 101.33 kPa) was 820.949 ± 0.25 kg/m3, the viscosity ([1]; 303.15 K, 101 kPa) was 7.994 ± 0.068 mPa·s and the speed of sound ([1]; 303.15 K, 101 kPa) was 1347.4 ± 1.6 m/s. For the same compound, the mass density ([1]; 303.15 K, 101 kPa) was 821.05 ± 0.25 kg/m3, the mass density ([1]; 305.64 K, 101.33 kPa) was 819.22 ± 0.25 kg/m3 and the mass density ([1]; 308.14 K, 101.33 kPa) was 817.486 ± 0.25 kg/m3. For the same compound, the viscosity ([1]; 308.15 K, 101 kPa) was 6.713 ± 0.057 mPa·s, the speed of sound ([1]; 308.15 K, 101 kPa) was 1330.5 ± 1.6 m/s and the mass density ([1]; 308.15 K, 101 kPa) was 817.57 ± 0.25 kg/m3. The mass density ([1]; 310.64 K, 101.33 kPa) was 815.748 ± 0.25 kg/m3, the viscosity ([1]; 313.15 K, 101 kPa) was 5.657 ± 0.05 mPa·s and the speed of sound ([1]; 313.15 K, 101 kPa) was 1313.6 ± 1.6 m/s. For the same compound, the mass density ([1]; 313.15 K, 101 kPa) was 814.19 ± 0.25 kg/m3, the mass density ([1]; 313.15 K, 101.33 kPa) was 814.001 ± 0.25 kg/m3 and the mass density ([1]; 315.65 K, 101.33 kPa) was 812.251 ± 0.25 kg/m3. It also gave a mass density ([1]; 318.15 K, 101.33 kPa) of 810.496 ± 0.25 kg/m3, a mass density ([1]; 320.65 K, 101.33 kPa) of 808.73 ± 0.25 kg/m3 and a mass density ([1]; 323.15 K, 101.33 kPa) of 806.96 ± 0.25 kg/m3. It also gave a refractive index [2] of 1.4323 ± 0.0005.
Compound `OCCO` [1,2-ethanediol] + CCCCCCCCCO has a speed of sound ([3]; 293.15 K) of 1666.7 ± 1.4 m/s, a viscosity ([3]; 298.15 K) of 16.95 ± 0.12 mPa·s and a speed of sound ([3]; 298.15 K) of 1654.9 ± 1.4 m/s. It also gave a viscosity ([3]; 303.15 K) of 13.83 ± 0.1 mPa·s, a speed of sound ([3]; 303.15 K) of 1643.1 ± 1.4 m/s and a mass density ([3]; 303.15 K) of 1106.46 ± 0.17 kg/m3. It also gave a viscosity ([3]; 308.15 K) of 11.44 ± 0.083 mPa·s, a speed of sound ([3]; 308.15 K) of 1631.2 ± 1.4 m/s and a viscosity ([3]; 313.15 K) of 9.565 ± 0.071 mPa·s. It also gave a speed of sound ([3]; 313.15 K) of 1619.3 ± 1.4 m/s and a mass density ([3]; 313.15 K) of 1099.23 ± 0.17 kg/m3.
